The nature of series [1]: Stability study: open-dish storage in constant temperature and humidity chambers, XRPD and purity check. To be noted: for Form change and purity decrease after storage / Purity after storage: open dish. The class given is physicochemical. The procedure:
Form CS8 was placed in a constant temperature and humidity chamber at 25° C./60% RH for 2 weeks in open dish. Crystalline form of the sample were tested by XRPD and impurity of the sample were checked. […] Crystalline form of the sample were tested by XRPD and impurity of the sample were checked. […] Two samples of apabetalone Form CS1 were placed in constant temperature and humidity chambers at 25° C./60% RH and 40° C./75% RH for 10 months in open dishes. The samples were characterized by XRPD and chemical impurity. […] Three samples of apabetalone Form CS7 were placed in constant temperature and humidity chambers at 25° C./60% RH and 40° C./75% RH for 4 weeks and 80° C. for 1 day in open dishes. Crystalline form of the sample were tested by XRPD and impurity of the sample were checked. […] Two samples of apabetalone Form CS9 were placed in constant temperature and humidity chambers at 25° C./60% RH and 40° C./75% RH for 10 months in open dishes. Crystalline form of the sample were tested by XRPD and impurity of the sample were tested to check the stability of Form CS9. […] Two samples of apabetalone Form CS11 were placed in constant temperature and humidity chambers at 25° C./60% RH and 40° C./75% RH for 6 weeks in open dishes. Crystalline form of the sample were tested by XRPD and impurity of the sample were tested to check the stability of Form CS11. […] Two samples of apabetalone Form CS4 were placed in open dishes in constant temperature and humidity chambers at 25° C./60% RH and 40° C./75% RH for 10 months. Crystalline form of the sample were tested by XRPD and impurity of the sample were tested to check the stability of Form CS4.

Series [2] can be described thus: Hygroscopicity by dynamic vapor sorption (DVS). To be noted: for Hygroscopicity class: Chinese Pharmacopoeia 2015 criteria, 80% RH; for Hygroscopicity class / Weight Gain under 80% Relative Humidity: 25° C.; for Weight Gain under 80% Relative Humidity: DVS, about 10 mg of sample; for Form change after DVS test (XRPD): XRPD before and after DVS test. The class given is physicochemical. The procedure: Dynamic Vapor Sorption (DVS) was measured via a SMS (Surface Measurement Systems Ltd.) intrinsic DVS instrument. Its control software is DVS—Intrinsic control software, and its analysis software is DVS—Intrinsic Analysis software. Typical Parameters for DVS test are as follows: • Temperature: 25° C. • Gas and flow rate: N2, 200 mL/min • dm/dt: 0.002%/min • RH range: 0% RH to 95% RH Dynamic vapor sorption (DVS) was applied to test hygroscopicity of Form CS8 in the present disclosure with about 10 mg of sample. […] Dynamic vapor sorption (DVS) was applied to test hygroscopicity of Form CS1 of the present disclosure with about 10 mg of sample. […] Dynamic vapor sorption (DVS) was applied to test hygroscopicity of Form CS7 of the present disclosure with about 10 mg of samples. Dynamic vapor sorption (DVS) was applied to test hygroscopicity of Form CS9 of the present disclosure with about 10 mg of sample. […] Dynamic vapor sorption (DVS) was applied to test hygroscopicity of Form CS4 of the present disclosure with about 10 mg of sample.

A short description of series [3]: Solubility study: saturated solutions in SGF and FeSSIF, concentration by HPLC. It counts as physicochemical. To be noted: for Solubility FeSSIF: FeSSIF (fed state simulated intestinal fluids, pH=5.0); for Solubility SGF: SGF (simulated gastric fluids). The text has this:
High Performance Liquid Chromatography (HPLC) data in the present disclosure were collected from an Agilent 1260 with Diode Array Detector (DAD). The HPLC method parameters for purity test in the present disclosure are as follows: • 1. Column: Waters XBridge C18 150×4.6 mm, 5 μm • 2. Mobile Phase: A: 0.1% TFA in H2O • B: 0.1% TFA in Acetonitrile
The prepared apabetalone Form CS2 was suspended into SGF (simulated gastric fluids) and FeSSIF (fed state simulated intestinal fluids, pH=5.0) to obtain saturated solutions. After being equilibrated for 1 h and 24 h, concentrations of the saturated solutions were measured by HPLC.
The prepared Form CS8 was suspended into SGF (simulated gastric fluids) and FeSSIF (fed state simulated intestinal fluids, pH=5.0) to obtain saturated solutions. After being equilibrated for 1 h, concentrations of the saturated solutions were measured by HPLC.
The prepared Form CS13 was suspended into SGF (simulated gastric fluids) and FeSSIF (fed state simulated intestinal fluids, pH=5.0) to obtain saturated solutions. After being equilibrated for 1 h, 4 h and 24 h, concentrations of the saturated solutions were measured by HPLC.
The prepared apabetalone Form CS20 was suspended into SGF (simulated gastric fluids) and FeSSIF (fed state simulated intestinal fluids, pH=5.0) to obtain saturated solutions. After being equilibrated for 1 h, 4 h and 24 h, concentrations of the saturated solutions were measured by HPLC.
The prepared solid of apabetalone Form CS1 was suspended into SGF (simulated gastric fluids) and FeSSIF (fed state simulated intestinal fluids, pH=5.0) to obtain saturated solutions. After being equilibrated for 1 h, 4 h and 24 h, concentrations of the saturated solutions were measured by HPLC.
The prepared solid of apabetalone Form CS7 was suspended into SGF (simulated gastric fluids) and FeSSIF (fed state simulated intestinal fluids, pH=5.0) to obtain saturated solutions. After being equilibrated for 1 h, 4 h and 24 h, concentrations of the saturated solutions were measured by HPLC.
The prepared solid of apabetalone Form CS9 was suspended into SGF (simulated gastric fluids) and FeSSIF (fed state simulated intestinal fluids, pH=5.0) to obtain saturated solutions. After being equilibrated for 1 h, 4 h and 24 h, concentrations of the saturated solutions were measured by HPLC.
The prepared solid of apabetalone Form CS11 was suspended into SGF (simulated gastric fluids) and FeSSIF (fed state simulated intestinal fluids, pH=5.0) to obtain saturated solutions. After being equilibrated for 1 h, 4 h and 24 h, concentrations of the saturated solutions were measured by HPLC.
The prepared solid of apabetalone Form CS4 was suspended into SGF (simulated gastric fluids) and FeSSIF (fed state simulated intestinal fluids, pH=5.0) to obtain saturated solutions. After being equilibrated for 1 h, 4 h and 24 h, concentrations of the saturated solutions were measured by HPLC.

The nature of series [4]: Mechanical stability: manual grinding for 5 minutes, XRPD. The class given is physicochemical. To be noted: ground manually in a mortar for 5 minutes. The procedure: Certain amount of Form CS1 was placed in a mortar and ground manually for 5 minutes. XRPD of the solid obtained was tested. Certain amount of Form CS4 was placed in a mortar and ground manually for 5 minutes. Crystalline form of the sample was checked by XRPD.

Series [5] can be described thus: Dissolution test of Form CS1 capsule. The class given is physicochemical. To be noted: capsule with 50 mg API; HCl (0.1 mol/L), paddle, 900 mL, 75 rpm, 37° C.; at 20 minutes.
Method: Certain amount of the API, microcrystalline cellulose, croscarmellose sodium according to Table 5.8 and 2 mg of magnesium stearate were weighted and blended for 2 minutes. Flakes were prepared using a manual tablet press at 5 KN pressure with a φ20 mm round tooling. The crushed flakes were manually sieved through 20 mesh sieve. 2 mg of magnesium stearate was added, and then the obtained powder was blended for 1 minute. The mixture was encapsulated into a 1# capsule shell, then the capsule was packed in 35 cc HDPE (high density polyethylene) bottle (one capsule per bottle) containing 1 g of desiccant. The bottle was then sealed by sealing machine. […] Dissolution test was performed on the obtained capsule. The conditions are as follows: Medium: HCl (0.1 mol/L) Method: Paddle Volume: 900 mL Speed: 75 rpm Temperature: 37° C.
A short description of series [6]: Formulation study: form stability in the capsule preparation. It counts as physicochemical. To be noted: capsule with microcrystalline cellulose, croscarmellose sodium, magnesium stearate. The procedure: Certain amount of the API, microcrystalline cellulose, croscarmellose sodium according to Table 5.8 and 2 mg of magnesium stearate were weighted and blended for 2 minutes. Flakes were prepared using a manual tablet press at 5 KN pressure with a φ20 mm round tooling. The crushed flakes were manually sieved through 20 mesh sieve. 2 mg of magnesium stearate was added, and then the obtained powder was blended for 1 minute. The mixture was encapsulated into a 1# capsule shell, then the capsule was packed in 35 cc HDPE (high density polyethylene) bottle (one capsule per bottle) containing 1 g of desiccant. The bottle was then sealed by sealing machine.

For the next series, the target named is BRD4 of BET family (Homo sapiens, UniProt O60885). As to conditions: background statement, regulates ApoA-1 expression; cited from earlier work.

Structures are written as SMILES. Values after ≈ are worked out from the molar mass of the structure shown. “Also recorded” adds a separate entry of the source.

On to `COc1cc(OC)c2c(=O)[nH]c(-c3cc(C)c(OCCO)c(C)c3)nc2c1` [Form CS4, 2-[4-(2-hydroxyethoxy)-3,5-dimethylphenyl]-5,7-dimethoxyquinazolin-4(3H)-one], for which the “Time the form is stable when stored” value in series [1] (25° C./60% RH) and in series [1] (40° C./75% RH) was “at least 10 months” each time. Also, the “Form change and purity decrease after storage” value in series [1] (25° C./60% RH, 10 months) is “No form change and obvious purity decrease”; in series [1] (40° C./75% RH, 10 months), “No form change and obvious purity decrease”. Moreover, the Purity after storage amounted to 99.10 in series [1] (25° C./60% RH, 1 week); 99.06 in series [1] (25° C./60% RH, 2 weeks); 99.05 in series [1] (25° C./60% RH, 4 weeks); 99.04 in series [1] (25° C./60% RH, 10 months); 99.10 in series [1] (40° C./75% RH, 1 week); 98.99 in series [1] (40° C./75% RH, 2 weeks). The Purity after storage turned out to be 99.04 in series [1] (40° C./75% RH, 4 weeks) and 99.02 in series [1] (40° C./75% RH, 10 months). Also, the Hygroscopicity class result in series [2] was “almost non hygroscopic”. In addition, the “Weight Gain under 80% Relative Humidity” value in series [2] turned out to be 0.12%. In addition, the “Form change after DVS test (XRPD)” value in series [2] is “doesn't change; also recorded: No form change”. Further, the figures for the “Solubility FeSSIF” value in series [3] (equilibrated 1 h), in series [3] (equilibrated 4 h) and in series [3] (equilibrated 24 h) were 0.14 mg/mL (≈ 378 µM), 0.10 mg/mL (≈ 270 µM) and 0.16 mg/mL (≈ 432 µM), respectively. Further, the results for the “Solubility SGF” value in series [3] (equilibrated 1 h), in series [3] (equilibrated 4 h) and in series [3] (equilibrated 24 h) were 0.30 mg/mL (≈ 810 µM), 0.28 mg/mL (≈ 756 µM) and 0.38 mg/mL (≈ 1030 µM), respectively. The “Form change and crystallinity decrease after manual grinding (XRPD)” value in series [4] was “doesn't change after manual grinding; also recorded: no form change and obvious crystalline decrease”.
With `COc1cc(OC)c2c(=O)[nH]c(-c3cc(C)c(OCCO)c(C)c3)nc2c1` [Form CS1, 2-[4-(2-hydroxyethoxy)-3,5-dimethylphenyl]-5,7-dimethoxyquinazolin-4(3H)-one], the “Time the form is stable when stored” value in series [1] (25° C./60% RH) and in series [1] (40° C./75% RH) was “at least 10 months” in each case. Moreover, the “Form change and purity decrease after storage” value was “No form change and obvious purity decrease” in series [1] (25° C./60% RH, 10 months); “No form change and obvious purity decrease” in series [1] (40° C./75% RH, 10 months). Further, the Purity after storage in series [1] (25° C./60% RH, 1 week) came to 99.27; in series [1] (25° C./60% RH, 2 weeks), 99.23; in series [1] (25° C./60% RH, 5 weeks), 99.25; in series [1] (25° C./60% RH, 10 months), 99.24; in series [1] (40° C./75% RH, 1 week), 99.20; in series [1] (40° C./75% RH, 2 weeks), 99.20. Moreover, the Purity after storage in series [1] (40° C./75% RH, 5 weeks) was found to be 99.25; in series [1] (40° C./75% RH, 10 months) it was 99.21. For the same molecule, the Hygroscopicity class result in series [2] is on record as “almost non hygroscopic”. Also, in series [2], the “Weight Gain under 80% Relative Humidity” value was determined as 0.13%. Also, the “Form change after DVS test (XRPD)” value in series [2] is “No form change; also recorded: doesn't change”. Moreover, in series [5], the “Released amount in dissolution test” value is listed as “more than 90%”. Further, the “Solubility FeSSIF” value is 0.14 mg/mL (≈ 378 µM) in series [3] (equilibrated 1 h), 0.11 mg/mL (≈ 297 µM) in series [3] (equilibrated 4 h) and 0.14 mg/mL (≈ 378 µM) in series [3] (equilibrated 24 h). Besides, the figures for the “Solubility SGF” value in series [3] (equilibrated 1 h), in series [3] (equilibrated 4 h) and in series [3] (equilibrated 24 h) were 0.31 mg/mL (≈ 837 µM), 0.29 mg/mL (≈ 783 µM) and 0.33 mg/mL (≈ 891 µM), respectively. For the same molecule, the “Form change and crystallinity decrease after manual grinding (XRPD)” value in series [4] is “no form change and obvious crystallity decrease; also recorded: doesn't change after manual grinding”. Also, the “Stability of the form in the preparations” value in series [6] was “stable in the preparations”.
Turning to `COc1cc(OC)c2c(=O)[nH]c(-c3cc(C)c(OCCO)c(C)c3)nc2c1` [apabetalone, 2-[4-(2-hydroxyethoxy)-3,5-dimethylphenyl]-5,7-dimethoxyquinazolin-4(3H)-one], the “Inhibition of BRD4” value on BRD4 of BET family is listed as “can inhibit BRD4”.
